From patent US5843735A, “Aklavinone C-11 hydroxylase, gene coding for same, expression vector therefor, and process for preparing hybrid antibiotics by using said vector” (priority 1995, dated 1998)
Where two headings read alike, the source gives them in different places.

Tests used:
UO-31 = experiment: Anticancer activity, reduced human cancer cell line panel (NCI method), Renal Cancer; assay type: cell-based; settings: UO-31, read-out: Log10 LC50 (converted)
Procedure: (§1) The anticancer activities of aclacinomycin X, 11-hydroxy aclacinomycin X and 11-hydroxy aclacinomycin A were determined by using a reduced human cancer cell line panel(supplier: National Cancer Institute, U.S.A.) in accordance with the method of National Cancer Institute, U.S.A. (Monks, A., et al., J. Natl. Cancer Inst., 83, 757-766(1991)), and the results are shown in Table I.

786-0 = experiment: as above; assay type: cell-based; settings: 786-0, read-out: Log10 LC50 (converted)
Procedure: as §1

A-549 = experiment: Anticancer activity, reduced human cancer cell line panel (NCI method), Non-Small Cell Lung Cancer; assay type: cell-based
Procedure: as §1

EKVX = experiment: as above; assay type: cell-based; settings: read-out: Log10 LC50 (converted)
Procedure: as §1

HL-60 TB = experiment: Anticancer activity, reduced human cancer cell line panel (NCI method), Leukemia; assay type: cell-based; settings: for LC50 (50% lethal concentration): Leukemia, HL-60 TB, read-out: Log10 LC50 (converted)
Procedure: as §1

K-562 = experiment: as above; assay type: cell-based
Procedure: as §1

[1] = Solubility in organic solvents; settings: methanol (MeOH), chloroform (CHCl3)
human cancer cell lines = experiment: Anticancer / growth inhibiting activity against the human cancer cell line panel, overall; assay type: cell-based; settings: for growth inhibiting activities compared with aclacinomycin A: various human cancer cell lines
Procedure: as §1

SK-OV-3 = experiment: Anticancer activity, reduced human cancer cell line panel (NCI method), Ovarian Cancer; assay type: cell-based; settings: SK-OV-3, read-out: Log10 LC50 (converted)
Procedure: as §1

OVCAR-3 = experiment: as above; assay type: cell-based; settings: OVCAR-3, read-out: Log10 LC50 (converted)
Procedure: as §1

PC-3 = experiment: Anticancer activity, reduced human cancer cell line panel (NCI method), Prostate Cancer; assay type: cell-based; settings: PC-3, read-out: Log10 LC50 (converted)
Procedure: as §1

DU-145 = experiment: as above; assay type: cell-based; settings: DU-145, read-out: Log10 LC50 (converted)
Procedure: as §1

MALME-3M = experiment: Anticancer activity, reduced human cancer cell line panel (NCI method), Melanoma; assay type: cell-based; settings: read-out: Log10 LC50 (converted)
Procedure: as §1

SK-MEL-2 = experiment: as above; assay type: cell-based; settings: SK-MEL-2, read-out: Log10 LC50 (converted)
Procedure: as §1

U251 = experiment: Anticancer activity, reduced human cancer cell line panel (NCI method), CNS Cancer; assay type: cell-based
Procedure: as §1

SF-268 = experiment: as above; assay type: cell-based; settings: SF-268, read-out: Log10 LC50 (converted)
Procedure: as §1

HT29 = experiment: Anticancer activity, reduced human cancer cell line panel (NCI method), Colon Cancer; assay type: cell-based
Procedure: as §1

HCC-2298 = experiment: as above; assay type: cell-based
Procedure: as §1

MCF7 = experiment: Anticancer activity, reduced human cancer cell line panel (NCI method), Breast Cancer; assay type: cell-based; settings: MCF7, read-out: Log10 LC50 (converted)
Procedure: as §1

MDA-N = experiment: as above; assay type: cell-based; settings: read-out: Log10 LC50 (converted)
Procedure: as §1

[2] = A549, Non-Small Cell Lung Cancer, A-549, read-out: Log10 LC50 (converted)
[3] = K562, Leukemia, K-562, read-out: Log10 LC50 (converted)
[4] = U-251, CNS Cancer, U251, read-out: Log10 LC50 (converted)
[5] = HT-29, Colon Cancer, HT29, read-out: Log10 LC50 (converted)

Compound | dissolves easily (solubility) [1] | growth inhibiting activities compared with aclacinomycin A (human cancer cell lines) | CC50 (UO-31; Renal Cancer) [µM] | LC50 (50% lethal concentration) (786-0; Renal Cancer) [µM] | LC50 (A-549; [2]) [µM] | CC50 (EKVX; Non-Small Cell Lung Cancer) [µM] | LC50 (50% lethal concentration) (HL-60 TB) [µM] | CC50 (K-562; [3]) [µM] | CC50 (OVCAR-3; Ovarian Cancer) [µM] | LC50 (PC-3; Prostate Cancer) [µM] | LC50 (DU-145; Prostate Cancer) [µM] | LC50 (concentration killing 50% of cells) (MALME-3M; Melanoma, MALME-3M) [µM] | CC50 (SK-MEL-2; Melanoma) [µM] | CC50 (U251; [4]) [µM] | CC50 (SF-268; CNS Cancer) [µM] | CC50 (HT29; [5]) [µM] | LC50 (50% lethal concentration) (MCF7; Breast Cancer) [µM] | CC50 (MDA-N; Breast Cancer) [µM] | also measured
CC[C@@]1(O)C[C@H](O[C@H]2C[C@H](N(C)C)[C@H](O[C@H]3C[C@H](O)[C@H](O[C@H]4CCC(=O)[C@H](C)O4)[C@H](C)O3)[C@H](C)O2)c2c(O)c3c(c(O)c2[C@H]1C(=O)OC)C(=O)c1cccc(O)c1C3=O [11-Hydroxy aclacinomycin A, 11-hydroxy aclacinomycin A] | dissolves easily in MeOH or CHCL3 | higher growth inhibiting activities than aclacinomycin A |  |  |  |  |  |  |  |  |  |  |  |  |  |  |  |  | CC50 (UO-31): 19.1 µM; LC50 (50% lethal concentration) (786-0): 8.32 µM; LC50 (A-549; A549, read-out: Log10 LC50 (converted)): 24.5 µM; CC50 (EKVX): 0.257 µM; CC50 (HL-60 TB; HL-60, read-out: Log10 LC50 (converted)): < 0.01 µM; CC50 (K-562; K562, read-out: Log10 LC50 (converted)): 1.78 µM; anticancer activity (human cancer cell lines; leukemia, colon cancer and melanoma cell lines): high anticancer activity; CC50 (SK-OV-3): 38.9 µM; CC50 (OVCAR-3): 72.4 µM; LC50 (PC-3): 14.5 µM; LC50 (DU-145): 24.5 µM; LC50 (concentration killing 50% of cells) (MALME-3M; Malme-3M): 0.0676 µM; CC50 (SK-MEL-2): < 0.01 µM; CC50 (U251; U-251, read-out: Log10 LC50 (converted)): 56.2 µM; CC50 (SF-268): 79.4 µM; CC50 (HT29; HT-29, read-out: Log10 LC50 (converted)): 12.9 µM; CC50 (HCC-2298; read-out: Log10 LC50 (converted)): < 0.01 µM; LC50 (50% lethal concentration) (MCF7): 25.1 µM; CC50 (MDA-N): 100 µM
CC[C@@]1(O)C[C@H](O[C@H]2C[C@H](N(C)C)[C@H](O)[C@H](C)O2)c2c(O)c3c(c(O)c2[C@H]1C(=O)OC)C(=O)c1cccc(O)c1C3=O [11-Hydroxy aclacinomycin T, 11-hydroxy aclacinomycin T] | dissolves easily in MeOH or CHC13 |  |  |  |  |  |  |  |  |  |  |  |  |  |  |  |  |  | 
CC[C@@]1(O)C[C@H](O[C@H]2C[C@H](N(C)C)[C@H](O[C@H]3C[C@H](O)[C@H](O[C@@H]4O[C@@H](C)C(=O)C=C4N)[C@H](C)O3)[C@H](C)O2)c2c(O)c3c(c(O)c2[C@H]1C(=O)OC)C(=O)c1cccc(O)c1C3=O [11-Hydroxy aclacinomycin X, 11-hydroxy aclacinomycin X] | dissolves easily in MeOH or CHCl3 | higher growth inhibiting activities than aclacinomycin A | 15.5 | 4.57 | 21.4 | 0.977 | 0.234 | 7.59 | > 100 | 6.76 | 41.7 | 0.0537 | < 0.01 | > 100 | > 100 | 47.9 | 30.9 | > 100 | anticancer activities compared with aclacinomycin X (human cancer cell lines; leukemia, melanoma and breast cancer cell lines): higher than aclacinomycin X
CC[C@@]1(O)C[C@H](O[C@H]2C[C@H](N(C)C)[C@H](O[C@H]3C[C@@H]4OC5CC(=O)C(C)OC5O[C@@H]4[C@H](C)O3)[C@H](C)O2)c2c(O)c3c(c(O)c2[C@H]1C(=O)OC)C(=O)c1cccc(O)c1C3=O (stereo partly drawn) [11-hydroxy aclacinomycin B] | dissolves easily in MeOH and CHC13 |  |  |  |  |  |  |  |  |  |  |  |  |  |  |  |  |  | 
CC[C@@]1(O)C[C@H](O[C@H]2C[C@H](N(C)C)[C@H](O[C@H]3C[C@H](O)[C@H](O[C@@H]4O[C@@H](C)C(=O)C=C4N)[C@H](C)O3)[C@H](C)O2)c2c(cc3c(c2O)C(=O)c2c(O)cccc2C3=O)[C@H]1C(=O)OC [Aclacinomycin X, aclacinomycin X] | dissolves easily in methanol or chloroform | higher growth inhibiting activities than aclacinomycin A | 26.3 | 18.2 | 4.07 | 18.6 | 30.9 | 60.3 | > 100 | 8.32 | 30.2 | 0.562 | 0.0525 | 18.2 | 11.2 | 30.9 | 43.7 | > 100 | selective anticancer activities (human cancer cell lines; colon cancer, melanoma and breast cancer cell lines): selective anticancer activities against colon cancer, melanoma and breast cancer cell lines; CC50 (SK-OV-3; Ovarian Cancer): > 100 µM; CC50 (HCC-2298; Colon Cancer, HCC-2298, read-out: Log10 LC50 (converted)): 0.191 µM
